From BindingDB's records for doi:10.1016/j.bmc.2007.01.049 (University of Ferrara, 2007)

Biological target: deoxyguanosine kinase (Homo sapiens)
Assay: Inhibition of human dGK assessed as […] phosphorylation

| IC50 [µM] | SMILES |
| --- | --- |
| > 500 | CCCCCCCC(=O)O[C@H]1[C@H](O)[C@@H](CO)O[C@H]1n1cnc2c(=O)[nH]c(N)nc21 [9-(2'-O-octanoyl-beta-D-arabinofuranosyl)guanine] |
| > 500 | CCCCCCCC(=O)Nc1nc2c(ncn2[C@@H]2O[C@H](CO)[C@@H](O)[C@@H]2OC(=O)CCCCCCC)c(=O)[nH]1 [N2-octanoyl-9-(2'-O-octanoyl-beta-D-arabinofuranosyl)guanine] |
